Results as given in patent publication US8252832B2, “Kinesin inhibitors as cancer therapeutics” (Novartis AG, priority 2007, dated 2012).
Like-named read-outs stand apart in the source and are kept apart here.

Columns and labels:
Assay in all cases: CellTiter-Glo, hematologic malignancy panel
Type in all cases: cell-based
HL60 = details: for GI50: Homo sapiens, HL-60, AML
Text: (§1) Identification of tumor types that are the most sensitive to the KSP inhibitors of the present invention can be accomplished using an unbiased approach that uses several cell-based assays. The assays chosen were as follows: • CellTiter-Glo®. This is an assay designed to measure ATP concentration in a cell culture, and can be correlated to cell number. Briefly CellTiter-Glo® (Promega Corporation) is a homogeneous method using the single CellTiter-Glo® reagent to detect ATP wherein ATP in the assay drives the activity of a thermostable luciferase to create a luminescent signal which can then be measured and correlated with the number of viable cells. Briefly, for adherent cells, 1,000 to 5,000 cells/well were plated in 96-well plates (100 μl/well) and let to adhere for 24 hours before being treated with drug. For non-adherent cells, 1,000 to 10,000 cells/well were plated in 96-well plates (100 μl/well) and immediately treated with drug. Drug dilutions were prepared in DMSO at 1000 times the final concentration. These dilutions were then diluted 1/100 in growth media before being added to the cells (11 μl/well) to achieve the desired final concentration. After 48 h in a 37° C. tissue culture incubator, the plates were processed for the CellTiter-Glo®assay according to the manufacturer's instructions. Protocol for a 72 hour cell proliferation assay: The 72 hour assay was performed the same way as the 48 hour assay except for the following modifications: For adherent cells, 500 to 5,000 cells/well were plated in 96-well plates (90 μl/well cell growth media) and left to adhere for 24 hours before being treated with drug. For non-adherent cells, 1,000 to 10,000 cells/well were plated in 96-well plates (90 μl/well cell growth media) and immediately treated with drug. Data values presented represent the concentration of test compound required for a 50% reduction in growth. • LDH release. The Cytotoxicity Detection KitPLUS (LDH) assay (Roche Diagnostics, Manheim, Germany) measures the amount of LDH released in the media by dying cells; LDH catalyzes the conversion of lactate into pyruvate. The enzymatic reaction is coupled to a chemical reaction that uses a tetrazolium salt to form a formazan that is red and can be detected by its absorbance at 490 nm. This assay measures the amount of cell death after drug treatment. Cells were plated at 10,000 cells/well in 96-well plates (100 μl/well). Adherent cells were let to adhere for 24 hours before being treated with drug, whereas non-adherent cells were immediately treated with drug. Drug dilutions were prepared in DMSO at 1000 times the final concentration. These dilutions were then diluted 1/100 in growth media before being added to the cells (11 μl/well) to achieve the desired final concentration. After 48 h in a 37° C. tissue culture incubator, the plates were processed for the Cytotoxicity Detection KitPLUS (LDH) assay according to the manufacturer's instructions. The media only values were subtracted from all the data points before analysis. Data values presented correspond to the compound concentration wherein LDH output is at half maximal level. • Caspase-Glo® 3/7. The Caspase-Glo® 3/7 Assay (Promega Corporation) is a homogeneous luminescent assay that measures caspase-3/7 activities. The assay provides a proluminescent caspase-3/7 DEVD-aminoluciferin substrate and a thermostable luciferase in a reagent optimized for caspase-3/7 activity, luciferase activity and cell lysis. Adding the single Caspase-Glo® 3/7 Reagent results in cell lysis, followed by caspase cleavage of the substrate. This liberates free aminoluciferin, which is consumed by the luciferase, generating a luminescent signal. The signal is proportional to caspase-3/7 activity. Data values presented correspond to the compound concentration wherein caspase 3/7 activity is at half maximal level. […]

H929 = details: for GI50: Homo sapiens, NCI-H929, MM
Text: as §1

OPM2 = details: for GI50: Homo sapiens, OPM-2, MM
Text: as §1

KMS18-Luc = details: MM
Text: as §1

RS4; 11 = details: ALL; for GI50: Homo sapiens
Text: as §1

L428 = details: for GI50: Homo sapiens, L-428, HL
Text: as §1

KM-H2 = details: HL; for GI50: Homo sapiens
Text: as §1

L363 = details: for GI50: Homo sapiens, L-363, MM
Text: as §1

HEL92 = details: AML
Text: as §1

SR = details: NHL; for GI50: Homo sapiens
Text: as §1

LP1 = details: for GI50: Homo sapiens, LP-1, MM
Text: as §1

KMS26 = details: for GI50: KMS-26, MM
Text: as §1

Karpas-299-Luc = details: NHL
Text: as §1

K562 = details: CML; for GI50: Homo sapiens
Text: as §1

SUDHL-4 = details: for GI50: Homo sapiens, SU-DHL-4, NHL
Text: as §1

[1] = GI50 in nM, read-out: Log(GI50) (converted)

## CC(C)(C)[C@H](c1nc(-c2cc(F)ccc2F)cn1Cc1ccccc1)N(CC[C@H](N)CF)C(=O)CO [Compound IIa]
HL60; AML
  Differential vs mean Log(GI50): 0.313
HL60; [1]
  GI50: 0.165 nM
HL60; read-out: GI50
  GI50: 0.17 nM
H929; [1]
  GI50: 0.335 nM
H929; read-out: GI50
  GI50: 0.34 nM
H929; MM
  Differential vs mean Log(GI50): 0.005
OPM2; [1]
  GI50: 0.135 nM
OPM2; read-out: GI50
  GI50: 0.14 nM
OPM2; MM
  Differential vs mean Log(GI50): 0.400
KMS18-Luc
  Differential vs mean Log(GI50): −0.184
KMS18-Luc; [1]
  GI50: 0.518 nM
KMS18-Luc; read-out: GI50
  GI50: 0.52 nM
RS4; 11
  Differential vs mean Log(GI50): 0.530
RS4; 11; [1]
  GI50: 0.1 nM
RS4; 11; read-out: GI50
  GI50: 0.1 nM
L428; HL
  Differential vs mean Log(GI50): −1.771
L428; [1]
  GI50: 20 nM
L428; read-out: GI50
  GI50: 20 nM
KM-H2
  Differential vs mean Log(GI50): 0.162
KM-H2; [1]
  GI50: 0.233 nM
KM-H2; read-out: GI50
  GI50: 0.23 nM
L363; [1]
  GI50: 0.13 nM
L363; read-out: GI50
  GI50: 0.13 nM
L363; MM
  Differential vs mean Log(GI50): 0.416
HEL92
  Differential vs mean Log(GI50): −0.160
HEL92; [1]
  GI50: 0.49 nM
HEL92; read-out: GI50
  GI50: 0.49 nM
SR; [1]
  GI50: 0.11 nM
SR; read-out: GI50
  GI50: 0.11 nM
SR
  Differential vs mean Log(GI50): 0.487
LP1; [1]
  GI50: 0.205 nM
LP1; read-out: GI50
  GI50: 0.21 nM
LP1; MM
  Differential vs mean Log(GI50): 0.218
KMS26; [1]
  GI50: 0.24 nM
KMS26; read-out: GI50
  GI50: 0.24 nM
KMS26; MM
  Differential vs mean Log(GI50): 0.150
Karpas-299-Luc
  Differential vs mean Log(GI50): −1.775
Karpas-299-Luc; [1]
  GI50: 20.2 nM
Karpas-299-Luc; read-out: GI50
  GI50: 20.2 nM
K562
  Differential vs mean Log(GI50): 0.210
K562; [1]
  GI50: 0.209 nM
K562; read-out: GI50
  GI50: 0.21 nM
SUDHL-4; [1]
  GI50: 0.447 nM
SUDHL-4; read-out: GI50
  GI50: 0.45 nM
SUDHL-4; NHL
  Differential vs mean Log(GI50): −0.120
